Assay results as given in patent US20260027104A1, “NOVEL NAPHTHYL AND ISOQUINOLINE SULFONAMIDE DERIVATIVES” (Hoffmann-La Roche Inc., priority 2022, published 2026).

Target: human GPR17 short isoform (Homo sapiens, UniProt Q13304)
Assay: hGPR17 cAMP assay (GPR17 cAMP Assay Protocol, antagonist mode)
Type: cell-based
Details: CHO-K1 cells stably expressing untagged human GPR17 short isoform; EC80 of agonist MDL29,951; forskolin 15 μM; 30 min, room temperature; TR-FRET cAMP readout
Protocol: GPR17 cAMP Assay Protocol:
CHO-K1 cells stably expressing vector containing untagged human GPR17 short isoform (Roche) were cultured at 37° C./5% CO2 in DMEM (Dulbecco's Modified Eagle Medium):F-12 (1:1) supplemented with 10% foetal bovine serum and 400 μg/ml Geneticin.
Changes in intracellular cyclic adenosine monophosphate (cAMP) levels were quantified using the Nano-TRF Detection Assay kit (Roche Diagnostics, Cat. No. 05214386001). This assay allows for direct cAMP quantification in a homogeneous solution. cAMP is detected based on time-resolved fluorescence energy transfer (TR-FRET) and competitive binding of ruthenylated cAMP and endogenous cAMP to an anti-cAMP monoclonal antibody labeled with AlexaFluor-700. The Ruthenium complex serves as the FRET donor and transfers energy to AlexaFluor-700. The FRET signal is inversely proportional to the cAMP concentration.
CHO-GPR17S cells were detached with Accutase and resuspended in assay buffer consisting of Hank's Balanced Salt Solution (HBSS), 10 mM HEPES (4-(2-hydroxyethyl) piperazine-1-ethanesulfonic acid solution) and 0.1% bovine serum albumin (pH 7.4). The cells were seeded in black 384-well plates (Corning) at a density of 10′000 cells/20 μl assay buffer until the addition of compounds.
Test antagonist compounds were serially diluted in dimethyl sulfoxide (DMSO) and spotted in 384-well plates. The compounds were then diluted in BSS buffer supplemented with an EC80 concentration of MDL29,951 (3-(2-Carboxy-4,6-dichloroindol-3-yl)propionic acid) (GPR17 agonist) plus 3-Isobutyl-1-methylxanthine (IBMX) (0.5 mM final concentration) and added to the cells at room temperature. Forskolin (15 μM final concentration) was added 5 minutes after the test compounds and the cells were incubated at room temperature for 30 minutes. The assay was stopped by adding cAMP detection mix (containing detergents for cell lysis) for 90 minutes at room temperature.
Cellular cAMP was measured using a Paradigm reader (Molecular Devices). The raw data was used to calculate the FRET signal based on the assay's P-factor as per cAMP kit instructions. The data was normalized to the maximal activity of a reference antagonist and dose response curves were fitted to the percent activity of the test compounds using a sigmoidal dose response model (Genedata Screener).
Results in the hGPR17 cAMP assay are provided for compounds of formula I in Table 1

human GPR17 short isoform, sequence (Q13304 29-367): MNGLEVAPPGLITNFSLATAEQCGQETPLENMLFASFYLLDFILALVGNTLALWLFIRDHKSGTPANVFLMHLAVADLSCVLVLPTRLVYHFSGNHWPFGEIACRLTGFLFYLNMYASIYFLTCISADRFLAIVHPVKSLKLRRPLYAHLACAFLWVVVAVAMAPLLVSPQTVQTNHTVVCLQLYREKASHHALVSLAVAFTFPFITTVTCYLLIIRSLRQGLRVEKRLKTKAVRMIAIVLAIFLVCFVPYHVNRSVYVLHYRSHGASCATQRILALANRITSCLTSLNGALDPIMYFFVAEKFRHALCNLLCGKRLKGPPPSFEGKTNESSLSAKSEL

Row | Compound | IC50 [nM]
1 | COc1nc(OCC(F)F)c(F)cc1NS(=O)(=O)c1cc(=O)n(C)c2cc(Cl)ccc12 [Example 37, 7-chloro-N-[6-(2,2-difluoroethoxy)-5-fluoro-2-methoxy-3-pyridyl]-2-keto-1-methyl-quinoline-4-sulfonamide] | 246
2 | N#CCc1cc(F)c(NS(=O)(=O)c2c[nH]c(=O)c3c(Cl)c(Cl)ccc23)cc1F [Example 38, 7,8-dichloro-N-[4-(cyanomethyl)-2,5-difluoro-phenyl]-1-keto-2H-isoquinoline-4-sulfonamide] | 182
3 | COc1nc(OCC(F)F)c(F)cc1NS(=O)(=O)c1c[nH]c(=O)c2c(Cl)c(Cl)ccc12 [Example 39, 7,8-dichloro-N-[6-(2,2-difluoroethoxy)-5-fluoro-2-methoxy-3-pyridyl]-1-keto-2H-isoquinoline-4-sulfonamide] | 7
4 | CN(C)c1ncc(S(=O)(=O)Nc2cc(F)c(CC#N)cc2F)c2ccc(Cl)cc12 [Example 42, 7-chloro-N-[4-(cyanomethyl)-2,5-difluoro-phenyl]-1-(dimethylamino)isoquinoline-4-sulfonamide] | 423
5 | CNc1ncc(S(=O)(=O)Nc2cc(F)c(OCC(F)F)nc2OC)c2ccc(Cl)cc12 [Example 43, 7-chloro-N-[6-(2,2-difluoroethoxy)-5-fluoro-2-methoxy-3-pyridyl]-1-(methylamino)isoquinoline-4-sulfonamide] | 35
6 | CNc1ncc(S(=O)(=O)Nc2cc(F)c(CC#N)cc2F)c2ccc(Cl)cc12 [Example 44, 7-chloro-N-[4-(cyanomethyl)-2,5-difluoro-phenyl]-1-(methylamino)isoquinoline-4-sulfonamide] | 315
7 | COc1nc(OCC(F)F)c(F)cc1NS(=O)(=O)c1cncc2c(C#N)c(Cl)ccc12 [Example 46, 7-chloro-8-cyano-N-[6-(2,2-difluoroethoxy)-5-fluoro-2-methoxy-3-pyridyl]isoquinoline-4-sulfonamide] | 253
8 | Cc1ccc(S(=O)(=O)Nc2cc(F)c(CC#N)cc2F)c2cccnc12 [Example 47, N-[4-(cyanomethyl)-2,5-difluoro-phenyl]-8-methyl-quinoline-5-sulfonamide] | 933
9 | COc1ncc(S(=O)(=O)Nc2cc(F)c(CC#N)cc2F)c2ccc(Cl)cc12 [Example 49, 7-chloro-N-[4-(cyanomethyl)-2,5-difluoro-phenyl]-1-methoxy-isoquinoline-4-sulfonamide] | 905
10 | COc1nc(NS(=O)(=O)c2cccc3nc(Cl)ccc23)nc(OC)c1OC(F)F [Example 51, 2-chloro-N-[5-(difluoromethoxy)-4,6-dimethoxy-pyrimidin-2-yl]quinoline-5-sulfonamide] | 448
11 | N#CCc1cc(F)c(NS(=O)(=O)c2c[nH]c(=O)c3ccccc23)cc1F [Example 52, N-(4-(cyanomethyl)-2,5-difluorophenyl)-1-oxo-1,2-dihydroisoquinoline-4-sulfonamide] | 594
12 | N#CCc1cc(F)c(NS(=O)(=O)c2ccnc3cc(Cl)ccc23)cc1F [Example 53, 7-chloro-N-[4-(cyanomethyl)-2,5-difluoro-phenyl]quinoline-4-sulfonamide] | 976

Other lines, results leading:

Row | IC50 [nM] | Compound
13 | 214 | COc1nc(OCC(F)F)c(F)cc1NS(=O)(=O)c1cccc2nc(C(F)F)ccc12 [Example 35, N-[6-(2,2-difluoroethoxy)-5-fluoro-2-methoxy-3-pyridyl]-2-(difluoromethyl)quinoline-5-sulfonamide]
14 | 371 | COc1nc(OCC(F)F)c(F)cc1NS(=O)(=O)c1cn(C)c(=O)c2cc(Cl)ccc12 [Example 36, 7-chloro-N-[6-(2,2-difluoroethoxy)-5-fluoro-2-methoxy-3-pyridyl]-1-keto-2-methyl-isoquinoline-4-sulfonamide]
15 | 13 | COc1nc(OCC(F)F)c(F)cc1NS(=O)(=O)c1cccc2c(N(C)C)cccc12 [Example 40, N-[6-(2,2-difluoroethoxy)-5-fluoro-2-methoxy-3-pyridyl]-5-(dimethylamino)naphthalene-1-sulfonamide]
16 | 61 | COc1nc(OCC(F)F)c(F)cc1NS(=O)(=O)c1cnc(N(C)C)c2cc(Cl)ccc12 [Example 41, 7-chloro-N-[6-(2,2-difluoroethoxy)-5-fluoro-2-methoxy-3-pyridyl]-1-(dimethylamino)isoquinoline-4-sulfonamide]
17 | 72 | CNc1cc(S(=O)(=O)Nc2cc(F)c(OCC(F)F)nc2OC)c2ccc(Cl)cc2n1 [Example 45, 7-chloro-N-[6-(2,2-difluoroethoxy)-5-fluoro-2-methoxy-3-pyridyl]-2-(methylamino)quinoline-4-sulfonamide]
18 | 154 | COc1nc(OC(F)F)c(F)cc1NS(=O)(=O)c1ccnc2cc(Cl)ccc12 [Example 48, 7-chloro-N-[6-(difluoromethoxy)-5-fluoro-2-methoxy-3-pyridyl]quinoline-4-sulfonamide]
19 | 38 | COc1nc(OCC(F)F)c(F)cc1NS(=O)(=O)c1cncc2nc(Cl)ccc12 [Example 50, 2-chloro-N-[6-(2,2-difluoroethoxy)-5-fluoro-2-methoxy-3-pyridyl]-1,7-naphthyridine-5-sulfonamide]
20 | 9 | COc1nc(OCC(F)F)c(F)cc1NS(=O)(=O)c1cccc2nc(Br)ccc12 [Example 54, 2-bromo-N-[6-(2,2-difluoroethoxy)-5-fluoro-2-methoxy-3-pyridyl]quinoline-5-sulfonamide]
